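Exposure lasted 48 hours, with cells grown in 96-well plates and compounds tested at five concentrations. TGI marks complete inhibition of growth.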
The molecules below were run on NCI-H522 lung (assay: NCI tumour cell line growth inhibition, 48 h).

| Compound | TGI [µM] |
| --- | --- |
| CCC(=O)NC(Nc1cccc(F)c1C)(C(F)(F)F)C(F)(F)F | > 100 |
| Cc1cc2nc3c(C#N)c(-c4ccccc4)cc(Nc4ccc(Cl)cc4)n3c2cc1C | > 100 |
| CN(c1ccc(Cl)cc1)S(=O)(=O)c1ccc([N+](=O)[O-])cc1 | > 100 |
| O=S1(=O)OCCOS(=O)(=O)C1F | > 100 |
| O=c1[nH]c(-c2ccc3ccccc3c2)nc2ccccc12 | > 100 |
| CN(C)Cc1cc(C(=O)/C=C/c2ccc(Cl)cc2)cc(CN(C)C)c1O | 10.8 |
| O=S(=O)(c1ccccc1)n1c2cc3cccnc3nc2c2cccnc21 | > 100 |
| Cc1cc(N(CCC#N)CCC#N)ccc1/C(N=Nc1ccc([N+](=O)[O-])cc1)=N\NC(=O)c1cc(Cl)ccc1C(=O)c1ccccc1 | 6.17 |
| CC(=O)c1c2c(cc3c1CC1(Cc4ccccc4C1=O)C3)CCC2 (centres undefined) | > 100 |
| Cc1cccc(-c2nc3ccc([N+](=O)[O-])cc3c(=O)o2)c1 | > 100 |
| O=C1N=c2ccccc2=C1c1c(O)[nH]c2ccccc12 | 25.6 |
| NC(N)=NCCN=C(N)N | > 100 |
| NC(=O)C(N)Cc1ccc(O)cn1 (centres undefined) | > 100 |
| COC(=O)C(C)(NC(=O)C(CC(=O)OC(C)(C)C)NC(=O)OC(C)(C)C)c1ccccc1 (centres undefined) | > 100 |
| COc1ccc(N=C2SC(=N/N=c3\sc4ccccc4n3C)SC2=Nc2ccc(OC)cc2)cc1 | > 100 |
| CCOC(=O)C1=CC(C)(C(=O)OCC)Nc2c(nc(OC)n(C)c2=O)N1 (centres undefined) | > 10 |
| CNc1ccc(OC)cc1S(=O)(=O)c1ccccc1[N+](=O)[O-] | > 100 |
| CC1(CCCO)CCCCCC(C)(CCCO)C1=O (centres undefined) | > 100 |
| COC(C)(C)C1=CCC(C)CC1 (centres undefined) | > 100 |
| C=C1CC(c2ccc(OCCCN3C(=O)c4ccccc4C3=O)c(OC)c2)OC1=O (centres undefined) | 1.54 |

The molecules below were run on OVCAR-4 ovarian (assay: NCI tumour cell line growth inhibition, 48 h).

| Compound | TGI [µM] |
| --- | --- |
| CC1CC(N)=Nc2ccccc2N1 (centres undefined) | > 100 |
| O=C(O)c1n[nH]nc1Cl | > 100 |
| CN(c1ccc(Cl)cc1)S(=O)(=O)c1cccc([N+](=O)[O-])c1 | > 100 |
| Cc1cc2nc3c(C#N)c(-c4ccccc4)cc(Nc4ccc(Cl)cc4)n3c2cc1C | > 100 |
| CN(c1ccc(Cl)cc1)S(=O)(=O)c1ccc([N+](=O)[O-])cc1 | > 100 |
| O=S1(=O)OCCOS(=O)(=O)C1F | > 100 |
| O=c1[nH]c(-c2ccc3ccccc3c2)nc2ccccc12 | 9.73 |
| CC(C)(C)C(=O)OCC1CCC[N+]2(C)CCCCC12 (centres undefined) | > 100 |
| COCCOCc1nc(C#N)c(N)o1 | > 100 |
| CN1C(=O)N/C(=C\c2ccc(S(=O)(=O)NN)cc2)C1=O | > 100 |
| O=S(=O)(c1ccccc1)n1c2cc3cccnc3nc2c2cccnc21 | > 100 |
| Cc1cc(N(CCC#N)CCC#N)ccc1/C(N=Nc1ccc([N+](=O)[O-])cc1)=N\NC(=O)c1cc(Cl)ccc1C(=O)c1ccccc1 | 95 |
| CC(=O)c1c2c(cc3c1CC1(Cc4ccccc4C1=O)C3)CCC2 (centres undefined) | > 100 |
| Cc1cccc(-c2nc3ccc([N+](=O)[O-])cc3c(=O)o2)c1 | > 100 |
| O=C1N=c2ccccc2=C1c1c(O)[nH]c2ccccc12 | 29.9 |
| NC(N)=NCCN=C(N)N | > 100 |
| NC(=O)C(N)Cc1ccc(O)cn1 (centres undefined) | > 100 |
| CCOC(=O)C1=CC(C)(C(=O)OCC)Nc2c(nc(OC)n(C)c2=O)N1 (centres undefined) | > 10 |
| CNc1ccc(OC)cc1S(=O)(=O)c1ccccc1[N+](=O)[O-] | > 100 |
| CC1(CCCO)CCCCCC(C)(CCCO)C1=O (centres undefined) | > 100 |
| COC(C)(C)C1=CCC(C)CC1 (centres undefined) | > 100 |

Each molecule was assayed on OVCAR-5 ovarian (assay: NCI tumour cell line growth inhibition, 48 h).

| Compound | TGI [µM] |
| --- | --- |
| CC1CC(N)=Nc2ccccc2N1 (centres undefined) | > 100 |
| O=C(O)c1n[nH]nc1Cl | > 100 |
| CN(c1ccc(Cl)cc1)S(=O)(=O)c1cccc([N+](=O)[O-])c1 | > 100 |
| CCC(=O)NC(Nc1cccc(F)c1C)(C(F)(F)F)C(F)(F)F | > 100 |
| Cc1cc2nc3c(C#N)c(-c4ccccc4)cc(Nc4ccc(Cl)cc4)n3c2cc1C | > 100 |
| CN(c1ccc(Cl)cc1)S(=O)(=O)c1ccc([N+](=O)[O-])cc1 | > 100 |
| O=S1(=O)OCCOS(=O)(=O)C1F | > 100 |
| O=c1[nH]c(-c2ccc3ccccc3c2)nc2ccccc12 | > 100 |
| CC(C)(C)C(=O)OCC1CCC[N+]2(C)CCCCC12 (centres undefined) | > 100 |
| COCCOCc1nc(C#N)c(N)o1 | > 100 |
| CN1C(=O)N/C(=C\c2ccc(S(=O)(=O)NN)cc2)C1=O | > 100 |
| CN(C)Cc1cc(C(=O)/C=C/c2ccc(Cl)cc2)cc(CN(C)C)c1O | 54.5 |
| O=S(=O)(c1ccccc1)n1c2cc3cccnc3nc2c2cccnc21 | > 100 |
| Cc1cc(N(CCC#N)CCC#N)ccc1/C(N=Nc1ccc([N+](=O)[O-])cc1)=N\NC(=O)c1cc(Cl)ccc1C(=O)c1ccccc1 | > 100 |
| CC(=O)c1c2c(cc3c1CC1(Cc4ccccc4C1=O)C3)CCC2 (centres undefined) | > 100 |
| Cc1cccc(-c2nc3ccc([N+](=O)[O-])cc3c(=O)o2)c1 | > 100 |
| O=C1N=c2ccccc2=C1c1c(O)[nH]c2ccccc12 | 12.4 |
| NC(N)=NCCN=C(N)N | > 100 |
